Measurements taken from US20220008402A1, “INCREASED E-CADHERIN EXPRESSION OR ACTIVITY FOR THE TREATMENT OF INFLAMMATORY DISEASES” (The Cleveland Clinic Foundation, priority 2020, published 2022).
“Also recorded” adds a separate entry of the source.

How the values were obtained:
Assay type in all cases: cell-based, human
[1] = system: HT-29 cF8 cell monolayers; assay: Epithelial barrier permeability in vitro (TEER, FITC-dextran flux), steady state; conditions: 10 μM
Protocol: (§1) FIG. 1: E-cadherin-enhancing drugs decrease ionic permeability of model colonic epithelial cell monolayers. Confluent T84 (A), HT-29cF8 (B) and SK-0015 (C) cell monolayers were treated for indicated times with either vehicle, E-cadherin upregulator (ECU, 10 μM), or ML327 (10 μM). Transepithelial electrical resistance (TEER) of the cell monolayers was measured before and during the drug treatment. Data is presented as mean ±SE (n=3); *P<0.05.
(§2) FIG. 2: E-cadherin-enhancing drugs decrease colonic epithelial permeability to large molecules. Confluent T84 (A), HT-29cF8 (B) and SK-C015 (C) cell monolayers were treated with either vehicle, ECU, or ML327, as described in the FIG. 1 legend. Trans-monolayer flux of FITC-dextran was determined at the end of the drug treatment. Data is presented as mean ±SE (n=3); **P<0.05 ***P<0.01.
(§3) Transepithelial electrical resistance (TEER) of cultured T84, HT-29 and SK-C015 intestinal epithelial cell monolayers was measured using an EVOMX voltohmmeter (World Precision Instruments, Sarasota, Fla.). Cells were plated on collagen-coated transwell filters (pore size 3 μm, Thermo-Fisher). The resistance of cell-free collagen-coated filters was subtracted from each experimental point. An in vitro dextran flux assay was performed by a following commonly-used protocol. Intestinal epithelial cell monolayers growing on transwell filters were apically exposed to 1 mg/ml of FITC-labeled dextran (4,000 Da) in HEPES-buffered Hanks balanced salt solution (HBSS). After 120 min of incubation, HBSS samples were collected from the lower chamber, and FITC fluorescence intensity was measured using a Victor^3 V plate reader (Perkin Elmer, Waltham, Mass.) with excitation and emission wavelengths 485 and 544 nm, respectively. After subtracting the fluorescence of dextran-free HBSS the amount of FITC dextran translocated across the epithelial cell monolayer was calculated based on a calibration curve using Prism 5 software (GraphPad, La Jolla, Calif.).
(§4) One set of experiments examined the effects of E-cadherin upregulator (ECU) and ML327 on the barrier properties of normal model intestinal epithelial cell monolayers. Three different human colonic epithelial cell lines, namely, T84, SK-0015 and HT-29 cF8 cells, were used. Cells were plated on collagen-coated transwell filters and allowed to reach confluency and differentiate for 5-7 days after plating. Thereafter, cell monolayers were exposed to either ECU (10 μM), ML327 (10 μM) or vehicle (DMSO). Transepithelial electrical resistance (TEER) was measured before and at different times after addition of E-cadherin-enhancing drugs. A transepithelial flux of FITC-dextran was examined at the end of the drug exposure to evaluate epithelial permeability to large uncharged molecules.

SK-0015 cell monolayers = assay: as above; conditions: 10 μM
Protocol: as §1, §2, §3, §4

T84 cell monolayers [2] = assay: as above; conditions: 10 μM
Protocol: as §1, §2, §3, §4

T84 cell monolayers [3] = assay: Cytokine (TNFα/IFNγ)-induced disruption of the epithelial barrier (TEER, FITC-dextran flux); conditions: 10 μM pretreatment 24 h, then TNFα 10 ng/ml + IFNγ 50 ng/ml, 48 h
Protocol: (§5) Confluent T84 cell monolayers were pretreated with either vehicle, or ECU (10 μM) for 24 h. Afterwards, cells were exposed to a combination of TNFα (10 ng/ml) and IFNγ (50 ng/ml) with and without ECU. (A) TEER was measured at the indicated times. (B) FITC-dextran flux was examined after 48 h incubation with cytokines. Data is presented as mean ±SE (n=3); ***P<0.001.
as §5, with “ML327” for “ECU”, “hours.” for “h.”, “ML327.” for “ECU.”, “(n=3); **P<0.05,” for “(n=3);”
as §3
A combination of two cytokines were selected: tumor necrosis factor alpha (TNFα, 10 ng/ml) and interferon-gamma (IFNγ, 50 ng/ml), which are known to compromise barrier integrity and trigger apical junction disassembly in cultured epithelial cell monolayers and intestinal mucosa in mice. Indeed, 48 hour incubation of well-differentiated T84 cell monolayers with TNFα and IFNγ caused a dramatic decrease in TEER (FIGS. 3A, 4A) and increase in transepithelial dextran flux (FIGS. 3B, 4B), which indicates the increase in barrier permeability. […] Next, it was examined if ECU protects epithelial adherens junctions (AJ) and tight junctions (TJ) from cytokine-induced disassembly. Immunofluorescence labeling of a specific AJ marker, E-cadherin, and a TJ marker, ZO-1, was used to visualize structure of different junctional complexes. […]

T84 cell monolayers [4] = assay: Immunoblotting of signaling molecules after multiple wounding; conditions: 10 μM pretreatment 24 h; lysates 12 and 24 h post-wounding
Protocol: Confluent T84 cell monolayers were pretreated with either vehicle, ECU (10 μM), or ML327 (10 μM), for 24 h, and were subjected to multiple wounding. Total cell lysates were collected at 12 and 24 h post-wounding, and the expression of different signaling molecules was determined by immunoblotting. Representative immunoblots (A) and densitometric quantification of protein band intensities from three independent experiments (B) are shown. Data are presented as a mean ±SE (n=3); *p<0.05; **p<0.01.
To prepare total cell lysates, epithelial cell monolayers were scraped and homogenized using a Dounce homogenizer in RIPA buffer (20 mM Tris, 50 mM NaCl, 2 mM EDTA, 2 mM EGTA, 1% sodium deoxycholate, 1% Triton X-100 (TX-100), and 0.1% SDS, pH 7.4) containing protease inhibitor cocktail and phosphatase inhibitor cocktails 2 and 3 (Sigma-Aldrich). The obtained total cell lysates were cleared by centrifugation (20 min at 14,000×g), diluted with 2×SDS sample loading buffer and boiled. SDS-polyacrylamide gel electrophoresis was conducted using a standard protocol with equal amounts of total protein (10 or 20 μg) loaded per each lane. The separated proteins were transferred to nitrocellulose membranes and the membranes were blocked with 5% non-fat milk. […]

[5] = at the end of the drug exposure
[6] = rapid (within 24 h) and sustained (up to 96 h), vs vehicle (DMSO)

## O=C(NCCCCc1ccncc1)c1cc(-c2ccco2)on1 [ECU]
[1]; [5]
  Transepithelial flux of FITC-dextran: significantly inhibited FITC-dextran flux
[1]; up to 96 h, vs vehicle (DMSO)
  Transepithelial electrical resistance (TEER): increase in TEER
SK-0015 cell monolayers; [5]
  Transepithelial flux of FITC-dextran: significantly inhibited FITC-dextran flux
SK-0015 cell monolayers; [6]
  Transepithelial electrical resistance (TEER): increase in TEER
T84 cell monolayers [2]; at the end of the drug exposure, T84
  Transepithelial flux of FITC-dextran: significantly inhibited FITC-dextran flux
T84 cell monolayers [2]; [6]
  Transepithelial electrical resistance (TEER): increase in TEER
T84 cell monolayers [3]
  Cytokine-induced decrease in TEER: prevents cytokine-induced disruption; also recorded: markedly attenuated
  Cytokine-induced increase in transepithelial FITC-dextran flux: prevents cytokine-induced disruption; also recorded: markedly attenuated
T84 cell monolayers [4]
  Expression of signaling molecules (pro-migratory signaling): activation of pro-migratory signaling events
